Results published in ChEMBL document CHEMBL2375337, “Synthesis and anti-H5N1 activity of chiral gossypol derivatives and its analogs implicated by a viral entry blocking mechanism” (Bioorg Med Chem Lett, 2013).
Values joined by “and” are separate entries in the source; they are usually repeats but may differ in a detail not shown here. Equal entries are not always repeated. Active and inactive are the calls of the source. The calls are words filed in the database; no cut-off is given here.

Experiments:
[1] = (§1) Cytotoxicity against MDCK cells by MTT assay; format: cell-based, Canis lupus familiaris; details: dog, MDCK cells
[2] = Selectivity index, ratio of CC50 for MDCK cells to IC50 for Influenza A virus (A/Vietnam/1194/2004(H5N1)); format: functional
Influenza A virus [3] = assay: Antiviral activity against Influenza A virus (A/Vietnam/1194/2004(H5N1)) infected in MDCK cells by plaque reduction assay; format: functional, organism-based
MDCK = assay: as §1; format: cell-based, Canis lupus familiaris; details: dog, mdck
H5N1 subtype [4] = assay: Antiviral activity against H5N1 subtype infected in MDCK cells; format: functional, organism-based; details: Influenza A virus
[5] = Selectivity index, ratio of cytotoxicity against MDCK cells to antiviral activity against H5N1 subtype; format: toxicity, cell-based; details: dog, read-out: Selectivity Index
H5N1 subtype [6] = assay: Inhibition of H5N1 subtype hemagglutinin adsorption into chicken RBC at 100 ug/mL
Influenza A virus [7] = assay: Antiviral activity against Influenza A virus (A/Vietnam/1194/2004(H5N1)) infected in MDCK cells assessed as inhibition of viral entry at 20 uM treated at the time of infection; format: functional, organism-based
H5N1 subtype [8] = assay: Inhibition of H5N1 subtype neuraminidase up to 20 uM
Influenza A virus [9] = assay: Antiviral activity against Influenza A virus (A/Vietnam/1194/2004(H5N1)) infected in MDCK cells assessed as inhibition of viral entry at 20 uM treated 2 hrs post infection; format: functional, organism-based
Influenza A virus [10] = assay: Antiviral activity against Influenza A virus (A/Vietnam/1194/2004(H5N1)) infected in MDCK cells assessed as inhibition of viral entry at 20 uM treated 2 hrs prior to infection; format: functional, organism-based
[11] = Influenza A virus, MDCK, read-out: IC50

SMILES | CC50 [1] | Ratio CC50/IC50 [2] | IC50 (Influenza A virus [3]; mdck, read-out: IC50) | CC50 (MDCK) | other results
Cc1cc2c(c(O)c1-c1c(C)cc3c(c1O)/C(=C/N[C@H](C(=O)[O-])C(C)C)C(=O)C(O)=C3C(C)C)/C(=C/N[C@H](C(=O)[O-])C(C)C)C(=O)C(O)=C2C(C)C.[Na+].[Na+] (stereo in doubt; (-)-6a) | > 43.8 µM | >16.66 | 2.63 µM |  | 
Cc1cc2c(c(O)c1-c1c(C)cc3c(c1O)/C(=C/N[C@@H](Cc1c[nH]c4ccccc14)C(=O)[O-])C(=O)C(O)=C3C(C)C)/C(=C/N[C@@H](Cc1c[nH]c3ccccc13)C(=O)[O-])C(=O)C(O)=C2C(C)C.[Na+].[Na+] (stereo in doubt; (-)-7a) | > 35.6 µM | >67.26 | 0.53 µM |  | 
Cc1cc2c(c(O)c1-c1c(C)cc3c(c1O)/C(=C/NC(C)(C)C(=O)[O-])C(=O)C(O)=C3C(C)C)/C(=C/NC(C)(C)C(=O)[O-])C(=O)C(O)=C2C(C)C.[Na+].[Na+] (stereo in doubt; (-)-9a) | 50.5 µM | 31.96 |  |  | IC50 (Influenza A virus [3]; [11]): 1.58 µM
CC[C@H](C)[C@H](N/C=C1\C(=O)C(O)=C(C(C)C)c2cc(C)c(-c3c(C)cc4c(c3O)/C(=C/N[C@H](C(=O)[O-])[C@@H](C)CC)C(=O)C(O)=C4C(C)C)c(O)c21)C(=O)[O-].[Na+].[Na+] (stereo in doubt; (+)-8b) |  | 132.03 | 0.32 µM | 42.2 µM | 
CC(=O)Oc1c(OC(C)=O)c(C(=O)O)c2c(OC(C)=O)c(-c3c(C)cc4c(C(C)C)c(OC(C)=O)c(OC(C)=O)c(C(=O)O)c4c3OC(C)=O)c(C)cc2c1C(C)C | 41.5 µM | 18.22 and 12.01 | 2.28 µM |  | IC50 (H5N1 subtype [4]): 2.98 µM; selectivity ratio [5]: > 8.7; IC50 (Influenza A virus [3]; [11]): 3.46 µM
COC(=O)[C@H](C)N/C=C1\C(=O)C(O)=C(C(C)C)c2cc(C)c(-c3c(C)cc4c(c3O)/C(=C/N[C@@H](C)C(=O)OC)C(=O)C(O)=C4C(C)C)c(O)c21 (stereo in doubt; (+)-10b) |  | 50.94 | 0.95 µM | 48.4 µM | 
Cc1cc2c(c(O)c1-c1c(C)cc3c(c1O)/C(=C/N[C@@H]1[C@@H](O)[C@H](O)[C@@H](CO)O[C@H]1O)C(=O)C(O)=C3C(C)C)/C(=C/N[C@@H]1[C@@H](O)[C@H](O)[C@@H](CO)O[C@H]1O)C(=O)C(O)=C2C(C)C | 21.8 µM |  |  |  | IC50 (Influenza A virus [3]; mdck): Not Active
Cc1cc2c(c(O)c1-c1c(C)cc3c(c1O)/C(=C/N[C@@H](C)C(=O)O)C(=O)C(O)=C3C(C)C)/C(=C/N[C@@H](C)C(=O)O)C(=O)C(O)=C2C(C)C (stereo in doubt; (-)-5a) |  |  |  |  | inhibition (H5N1 subtype [6]): inactive; inhibition (Influenza A virus [7]): inactive; inhibition (H5N1 subtype [8]): inactive; inhibition (Influenza A virus [9]): inactive; inhibition (Influenza A virus [10]): inactive
Cc1cc2c(C(C)C)c(O)c(O)c(C(=O)O)c2c(O)c1-c1c(C)cc2c(C(C)C)c(O)c(O)c(C(=O)O)c2c1O | 60.6 µM | 18.62 and 15.82 | 1.95 µM | 36.3 µM | inhibition (H5N1 subtype [6]): inactive; inhibition (Influenza A virus [7]): inactive; inhibition (H5N1 subtype [8]): inactive; IC50 (H5N1 subtype [4]): 2.37 µM; inhibition (Influenza A virus [9]): inactive; inhibition (Influenza A virus [10]): inactive; selectivity ratio [5]: 10.5; IC50 (Influenza A virus [3]; [11]): 3.83 µM
Cc1cc2c(c(O)c1-c1c(C)cc3c(c1O)/C(=C/N[C@@H](C)C(=O)[O-])C(=O)C(O)=C3C(C)C)/C(=C/N[C@@H](C)C(=O)[O-])C(=O)C(O)=C2C(C)C.[Na+].[Na+] (stereo in doubt; (-)-5a) | > 47.3 µM | >44.24 | 1.07 µM |  | 
COC(=O)[C@H](Cc1c[nH]c2ccccc12)N/C=C1\C(=O)C(O)=C(C(C)C)c2cc(C)c(-c3c(C)cc4c(c3O)/C(=C/N[C@@H](Cc3c[nH]c5ccccc35)C(=O)OC)C(=O)C(O)=C4C(C)C)c(O)c21 (stereo in doubt; (-)-11a) | > 36.3 µM | >10.77 | 3.37 µM |  | 
CC[C@H](C)[C@H](N/C=C1\C(=O)C(O)=C(C(C)C)c2cc(C)c(-c3c(C)cc4c(c3O)/C(=C/N[C@H](C(=O)[O-])[C@@H](C)CC)C(=O)C(O)=C4C(C)C)c(O)c21)C(=O)[O-].[Na+].[Na+] (stereo in doubt; (-)-8a) | > 42.2 µM | >58.68 | 0.72 µM |  | 
COc1c(OC)c(C(=O)O)c2c(OC)c(-c3c(C)cc4c(C(C)C)c(OC)c(OC)c(C(=O)O)c4c3OC)c(C)cc2c1C(C)C |  |  |  |  | IC50 (H5N1 subtype [4]): 158 µM; selectivity ratio [5]: > 0.33
COC(=O)[C@H](C)N/C=C1\C(=O)C(O)=C(C(C)C)c2cc(C)c(-c3c(C)cc4c(c3O)/C(=C/N[C@@H](C)C(=O)OC)C(=O)C(O)=C4C(C)C)c(O)c21 (stereo in doubt; (-)-10a) | > 48.4 µM | >25.2 | 1.92 µM |  | 
Cc1cc2c(c(O)c1-c1c(C)cc3c(c1O)/C(=C/N[C@@H](C)C(=O)[O-])C(=O)C(O)=C3C(C)C)/C(=C/N[C@@H](C)C(=O)[O-])C(=O)C(O)=C2C(C)C.[Na+].[Na+] (stereo in doubt; (+)-5b) |  | 100.72 | 0.47 µM | 47.3 µM | 
Cc1cc2c(c(O)c1-c1c(C)cc3c(c1O)/C(=C/NC(C)(C)C(=O)[O-])C(=O)C(O)=C3C(C)C)/C(=C/NC(C)(C)C(=O)[O-])C(=O)C(O)=C2C(C)C.[Na+].[Na+] (stereo in doubt; (+)-9b) |  | 51.11 | 0.89 µM | 45.5 µM | 
Cc1cc2c(c(O)c1-c1c(C)cc3c(c1O)/C(=C/N[C@@H](Cc1c[nH]c4ccccc14)C(=O)[O-])C(=O)C(O)=C3C(C)C)/C(=C/N[C@@H](Cc1c[nH]c3ccccc13)C(=O)[O-])C(=O)C(O)=C2C(C)C.[Na+].[Na+] (stereo in doubt; (+)-7b) |  | 142.6 | 0.25 µM | 35.6 µM | 
COC(=O)[C@H](Cc1c[nH]c2ccccc12)N/C=C1\C(=O)C(O)=C(C(C)C)c2cc(C)c(-c3c(C)cc4c(c3O)/C(=C/N[C@@H](Cc3c[nH]c5ccccc35)C(=O)OC)C(=O)C(O)=C4C(C)C)c(O)c21 (stereo in doubt; (+)-11b) |  | 22.68 | 1.6 µM | 36.3 µM | 
Cc1cc2c(C(C)C)c(O)c(O)c(C=O)c2c(O)c1-c1c(C)cc2c(C(C)C)c(O)c(O)c(C=O)c2c1O [GOSSYPOL] | 35.4 µM |  | 3.82 µM and 1.87 µM |  | inhibition (H5N1 subtype [6]): inactive; inhibition (Influenza A virus [7]): inactive; inhibition (H5N1 subtype [8]): inactive; IC50 (H5N1 subtype [4]): 2.14 µM; inhibition (Influenza A virus [9]): inactive; inhibition (Influenza A virus [10]): inactive; selectivity ratio [5]: 1.65
Cc1cc2c(c(O)c1-c1c(C)cc3c(c1O)/C(=C/N[C@@H](C)C(=O)O)C(=O)C(O)=C3C(C)C)/C(=C/N[C@@H](C)C(=O)O)C(=O)C(O)=C2C(C)C (stereo in doubt; (+)-5b) |  |  |  |  | inhibition (H5N1 subtype [6]): inactive; inhibition (Influenza A virus [7]): inactive; inhibition (H5N1 subtype [8]): inactive; inhibition (Influenza A virus [9]): inactive; inhibition (Influenza A virus [10]): inactive
NC12CC3CC(CC(C3)C1)C2 [AMANTADINE] | > 220 µM | >57.39 |  |  | IC50 (H5N1 subtype [4]): 3.84 µM; selectivity ratio [5]: > 57.4; IC50 (Influenza A virus [3]; [11]): 3.84 µM
Cc1cc2c(c(O)c1-c1c(C)cc3c(c1O)/C(=C/N[C@H](C(=O)[O-])C(C)C)C(=O)C(O)=C3C(C)C)/C(=C/N[C@H](C(=O)[O-])C(C)C)C(=O)C(O)=C2C(C)C.[Na+].[Na+] (stereo in doubt; (+)-6b) |  | 34.5 | 1.27 µM | 43.8 µM | 
COc1c(OC)c(C=O)c2c(OC)c(-c3c(C)cc4c(C(C)C)c(OC)c(OC)c(C=O)c4c3OC)c(C)cc2c1C(C)C |  |  |  |  | IC50 (H5N1 subtype [4]): 103 µM; selectivity ratio [5]: > 0.54
